According to patent publication US20150051210A1, “Tyrosine Kinase Inhibitor Combinations and their Use” (Novartis AG, priority 2012, published 2015):

Tested on: MG-63 cells
Assay: Combination assay (concentration matrix, resazurin, Loewe synergy) in MG-63
Format: cell-based
Settings: MG-63, semi-solid media
Method: Combinatorial anti-proliferative effects of Cpd. B (“B) in the tables below) and BGJ398 (“C” in the tables below) were measured in KYM-1, MG-63, and Hs-683 cells on 96-well-plates using the concentration matrix depicted below:
Cells were grown under three different conditions (see FIG. 7): Experiments labeled “monolayer” were conducted on regular tissue culture plates, allowing cells to adhere and eventually form a monolayer. Cells were seeded on 3 plates per experiment (triplicates) in standard growth media as described above at a density of 5000 per well. Six to eight wells on a separate plate were seeded to quantify the amount of viable cells at the point of compound addition. […] At the same time, viable cells on the separate plate mentioned above were quantified using a resazurin sodium salt dye reduction readout. […] Quantification of Synergy was done using the methods described in G. R. Zimmermann et al., Drug Discovery Today, Vol. 12, No. ½, 2007, pages 34 to 42, and especially J. Lehár et al., Nature Biotechnology Vol. 27, No. 7, 2009, pages 659 to 666, in short by iteratively calculating the Loewe additive response ILoewe (X, Y) at each dose matrix point from the single-agent response curves, and then summing the differences between ILoewe and the experimental data. […]

CCN1CCN(c2ccc(Nc3cc(N(C)C(=O)Nc4c(Cl)c(OC)cc(OC)c4Cl)ncn3)cc2)CC1 [BGJ398, 3-(2,6-dichloro-3,5-dimethoxy-phenyl)-1-{6-[4-(4-ethylpiperazin-1-yl)-phenylamino]-pyrimidin-4-yl}-1-methyl-urea]
growth inhibition: strong growth inhibition
